Columns and labels:
Format in all cases: in vivo, FVB-Neu mice
NT2 tumors [1] = assay: Orthotopic murine breast tumor model: tumor growth and survival
Experimental: 8-12 week old female FVB-Neu mice (Jackson Labs) were used under a protocol approved by University of North Carolina Institutional Animal Care and Use Committee. For tumor inoculation, mice were intradermally injected with 5×10^4 NT2 tumor cells into an axillary mammary gland. 21 days later (day 0), 1.5×10^6 CD4+ and 1.5×10^6 CD8+ CAR T cells were injected intravenously. Tumors were measured twice weekly with calipers and the tumor area calculated as length×width. The change of tumor area was determined by subtracting the tumor area before CAR T injection with the value on the day of the measurement. Per institutional guidelines, tumor-bearing mice were sacrificed when the tumor area reached 200 mm^2 or loss of more than 20% of total body weight. For tumor-bearing animals receiving combination therapy, animals underwent lymphodepletion with 5 Gy of whole body irradiation (X-RAD 320, Precision X-Ray) one day prior to CAR T injection. In the morning of day 0 mice were injected with 500 μg of DMXAA (Tocris) distal to the site of tumor growth with CAR T cells injected in the afternoon. Starting 1 day after CAR T infusion, anti-PD-1 (J43, 200 μg/mouse), anti-Gr-1 (RB6-8C5, […]), and […] (R4-6A2, 250 μg/mouse) mAb were injected intraperitoneally into respective recipients.

NT2 tumors [2] = assay: Flow cytometry of CAR T cells in tumor microenvironment and spleen
Experimental: At indicated time points, tumors were bluntly resected and cut into small pieces and processed into a single-cell suspension using gentleMACS™ Dissociator (Miltenyi). Lymphocyte enrichment was achieved by isolating cells at the interface of 44% Percoll (Sigma-Aldrich) in media and Lympholyte-M (Cedarlane). Isolated immune cells were stained as described below. The lymphocyte fraction was not enriched in experiments where absolute cell number was determined.
Anti-Neu CAR T cells were detected using recombinant Neu/Her2.Fc fusion protein conjugated with PE (Neu-PE) (Creative Biomart). Antibodies used in in vitro assays included anti-CD45-FITC/e450 (30-F11, Invitrogen), anti-IFN-γ-APC (XMG1.2, Invitrogen), anti-TNF-PE-Cy7 (MP6-XT22, Invitrogen) and anti-IL-17A-PE (eBio17B7, Invitrogen). Tumor-infiltrating immune cells were detected and analyzed with anti-CD45-FITC, anti-CD3-e450 (17A2, Invitrogen), anti-CD4-BV510 (GKL.5, Biolegend), anti-CD8-APC-Cy7 (53-6.7 BD Biosciences), anti-CD44-PerCP5.5 (IM7, Invitrogen), anti-CD62L-APC (MEL-14, Invitrogen), anti-CD11b-BV711 (M1/70, Invitrogen), anti-F4/80-BV605 (BM8, Invitrogen), anti-Gr-1-Percp5.5 (RB6-8C5, Invitrogen), anti-PD-1-PE-Cy7 (J43, Invitrogen), anti-CD127-BV421 (A7R34, Biolegend), anti-KLGR1-BV605 (2F1, BD Bioscience). For in vivo intracellular protein staining, anti-Foxp3-PerCP5.5 (FJK-16S. Invitrogen), anti-Ki67-APC (SOLA15, Invitrogen) were used. Dead cells were excluded with Fixable Viability Stain 700 (BD Biosciences) and Fc receptors were blocked with Fc block (BD Biosciences). Cell number was determined using Count Bright Beads (Invitrogen). Data were collected using a BD LSR-Fortessa or BD Canto cytometer (BD Biosciences). Data were analyzed with FlowJo software (Treestar).

NT2 tumors [3] = assay: Single cell RNA sequencing of tumor infiltrating CD45+ immune cells; conditions: DMXAA with Th/Tc17 CAR T cells
Text: At day 7 or day 10 after CAR-T therapy, tumors were bluntly resected and cut into small pieces and digested using Tumor Dissociation Kit, mouse (Miltenyi) in gentleMACS™ Dissociator (Miltenyi) according to manufacturer's instruction. After digestion, dead and dying cells were magnetically separated using a Dead Cell Removal Kit (Miltenyi), after which immune cells were magnetically enriched using CD45 (TIL) MicroBeads (Miltenyi). Single cells were partitioned using a Chromium Controller (10× Genomics), and gene expression sequencing libraries were generated using Chromium Single Cell 3′ Library & Gel Bead Kit v3 (10× Genomics). The libraries were pooled and sequenced using an Illumina NovaSeq 6000 (Illumina). Raw base call files were demultiplexed with Cell Ranger 3.1.0 (10× Genomics) and bcl2fastq Conversion Software v2.20.0 (Illumina).
Single cell results from Cell Ranger output was analyzed using Partek flow workstation (available at partek.com/application-page/single-cell-gene-expression/). In detail, single cell result from each sample of Cell Ranger output was filtered using single cell (QA/QC) filter to exclude doublets/multiplets, cells expressing genes <30 genes per cell and dead cells. Processed results were normalized using recommended method, including log normalization of gene expression and scaled to count per million. Following results were filtered out by feature (gene) that were not expressed in 99% of samples. Then the replicate samples were pooled and clustered with an unsupervised method based on PCA using the first 16 principle component. Clustered plots were visualized by t-SNE plot, where cells were clustered using shared nearest neighbor (SNN). Populations was determined by expression of key markers, including Cd3e (T cells), Adgre1 (macrophage) and Itgam and/or Itgax (myeloid cells), and T cells were further clustered by expression of Cd8 and Cd44 (activated CD8 T cells), lack of Cd44 (naive T cells), Cd4 Cd44 (activated CD4 T cells) and Cd4 Foxp3 (Treg). For comparison, samples from each treatment group was pooled by the mean expression to simulate bulk RNA-seq, and compared using GSA analysis directly. Gene hits that reached P<0.05 with more than 2 or less than −2 fold expression difference was reported and shown as a heat map for pooled samples (macrophage and myeloid cells) or Q<0.05 with 2 or −2 fold expression difference for non-pooled samples (T cells). Further detailed analysis steps can be found on Partek flow page (available at documentation.partek.com/pages/viewpage.action?pageId=12943422) and parameter setting was set as default unless indicated.

[4] = DMXAA prior to Th/Tc17 CAR-T cell infusion, compared to mock transduced T cells or Th/Tc17 CAR-T cells alone
[5] = DMXAA with Th/Tc17 CAR T cells, flow cytometry

## Cc1ccc2c(=O)c3cccc(CC(=O)O)c3oc2c1C [DMXAA]
NT2 tumors [1]; [4]
  anti-tumor efficacy: significantly improved
  overall survival: significantly improved
NT2 tumors [1]; Th/Tc17 CAR-T, DMXAA, anti-PD-1 and anti-Gr1 treatment
  requirement for tumor remission: required for tumor remission
NT2 tumors [2]; DMXAA given with 7/15 CAR T cells, at a site remote from the tumor
  persistence of CAR T cells in the TME: enhanced the persistence
NT2 tumors [2]; DMXAA treatment, through day 10 post-therapy
  number of CAR T cells: marked increase
NT2 tumors [2]; [5]
  number and percentage of CD4+ CAR T cells: increase in the number and percentage
  percentage and number of CAR T cells in the TME: greatly increased
NT2 tumors [3]
  expression of CXCL9 and CXCL10 by myeloid cells within the TME: increased expression
NT2 tumors [3]; day 7
  expression of APOE, PTGS2 and AREG in myeloid cells: reduced expression
  expression of BATF2, CXCL10, CCL5, SOCS1, NOS2 and IL12A in second myeloid cluster: greatly enhanced expression
  expression of genes associated with M1-like macrophages including NOS2 and INHBA: increased expression
  presence of M2-like macrophages expressing RENTLA, MMRC1, FOLR2 and IL10 in the TME: marked decrease
NT2 tumors [3]; day 7, CD8+ CAR T cells
  accumulation of T cells co-expressing TBX21, IFNG, CXCR3 and CCR5: enhanced the accumulation
